Reference: patent US20240261315A1 (Omikron Italia S.r.l., priority 2021, published 2024)

Experiments:
[1] = design: species or system Sprague-Dawley rats; conditions: male, Sprague-Dawley, rat, in vivo
Method: The bioavailability of citicoline existing in the composition, the invention relates to, was surveyed by making a bioavailability study on Sprague-Dawley rats. In particular, 30 Sprague-Dawley male rats, weighing 175 and 225 g, were subjected fasting 16 hours before administration.
For the preparation of the radiomarked formulations 14C-methylCiticoline and […] were used.
The preparations were purified by ion-exchange chromatography by using isobutyric acid:water-ammonia:EDTA (500:280:21:8), n-butanol:acetic acid:water (12:3:5), ethanol:1 mol/l ammonium acetate pH 7 (5:2), ethanol:saturated borax (8%):0.5 mol/l EDTA:5 mol/l ammonium acetate (220:80:0.5:20).
The samples were analysed with a liquid scintillator counter LSC, according to the programme for ^14C.
For the quantitative analysis Packard soluene (solubilizing agent), H2O2 (bleaching agent) and Packard Instagel (scintillator) were used as reagents.
The formulations were administered at the dose of 5 mg/kg respectively: Group 1, intravenously in the jugular vein; Group 2, in oral solution administered by nasogastric tube; Group 3, in tablets dissolved in saline solution and administered by nasogastric tube.
The collections of blood samples of about […] were obtained at programmed time (after administration at 10′, 20′, 30′, 1 h, 2 h, 3 h, 4 h, 5 h, 6 h, 7 h, 24 h). […]

[2] = test system: db/db mice; test: Full field electroretinogram (ffERG) in db/db mice; assay type: in vivo; conditions: stimuli 10 and 40 cd s/m2, vs Placebo
Source text: (§1) The db/db mice have a mutation in the leptin receptor gene and they are an animal model of retinal neurodegeneration. Such model is useful to mime the pathophysiological events which are found in neurodegenerative pathologies such as glaucoma.
(§2) 20 db/db […] (BKS.Cg-+Leprdb/+Leprdb/OlaHsd, males, 10 weeks) were randomized in 5 groups and treated for 15 days by oral route with oral solutions based on: • 1. Citicoline 0.5% (Cit.) in 10% lactose solution administered with nasogastric tube (SNG); • 2. […] 10% lactose solution (Placebo) administered with SNG; • 5. Healthy, non-diabetic control (Control).
Through (ii) full field Electroretinogram (ffERG) the electrical activity and then the functionality of the retinal cells were evaluated. The recordings were measured by using ERG platform of Ganzfeld (Phoenix Research Laboratories, Pleasanton, CA, USA) and according to the recommendations of ISCEV (International Society for Clinical Electrophysiology of Vision).

[3] = test system: visual cortex; test: Clinical observation: electro-functional test, PEV visual evoked potentials; assay type: in vivo, human; conditions: after 6 months of treatment, in addition to hypotensive therapy, 3 patients
Method: 12 randomized patients were included in 4 groups: • CIT. GROUP-3 patients treated with citicoline in oral solution 10 ml/die corresponding to 500 mg/die of citicoline, in addition to the hypotensive therapy; • NIC. […] The patients were treated and followed for 6 months. At baseline and after 6 months of treatment complete eye examination including visual acuity, control of the intraocular pressure (IOP) with Goldmann tonometry (GAT); visual field testing, electro-functional and morphological examination were performed. Then (2) electro-functional test was performed: electroretinogram from PERG pattern and of the PEV visual evoked potentials to evaluate the bioelectric responses respectively of the retinal ganglion cells and of the visual cortex evoked from the visual stimuli. The patients were positioned in an acoustically insulated semi-dark room, in front of the display surrounded by a uniform field of luminance of 5 cd/m2. […] The signal to PERG and PEV was recorded by a small electrode of Ag/AgCl positioned respectively above the lower eyelid and on the scalp. […] The peak-peak widths were measured at PERG P50-N95 for each wave. […] During a recording session, simultaneous PERG and PEV were recorded at least twice (between two and six times) and the resulting waveforms were overlapped to verify the repeatability of results. […]

[4] = test system: apoptotic cells in the GCL retinal layer; test: TUNEL assay of cellular apoptosis in retina of db/db mice; assay type: in vivo; conditions: vs vehicle
Source text: as §1, §2
(iv) The search for events of cellular apoptosis was performed through TUNEL assay by using the kit DeadEnd™ Fluorometric TUNEL System (PROMEGA, Madison, WI, USA). The TUNEL (Terminal Transferase dUTP Nick-End Labeling) colouring was performed by using the Kit system TUNEL Fluorometric DeadEnd (PROMEGA, Madison, WI, USA). Cryosections of retina were permeabilized by incubation for 2 minutes on ice with 0.1% Triton X-100 in 0.1% sodium citrate. The secondary antibody was Alexa 488 goat-anti-rabbit. For the evaluation by means of confocal laser scanning microscopy the excitation wavelength was 488 nm (detection in the range 515-565 nm (green)).

[5] = test system: db/db mice; test: SD-OCT measurement of retinal layer thickness in db/db mice; assay type: in vivo; conditions: 15 days oral treatment; for GC/IPL layer thickness / INL layer thickness / RNFL layer thickness: SD-OCT; for alteration in the thickness of retinal layers: vs placebo or healthy control
Source text: as §1, §2
On day 15, 1 hour after the administration of the several treatments, the mice were subjected to (i) very high-resolution Spectral Domain Optical Coherence Tomography (SD-OCT), to obtain, in vivo, detailed images relating to the morphology of the different retinal layers. The mice were subjected to anaesthesia induced by single intraperitoneal injection of 80 mg/ml Ketamine, xylazine 12 mg/ml (Sigma-Adrich). Subsequently, to induce mydriasis, one single drop of 0.5% tropicamide was instilled and then each mouse positioned in front of the objective of OCT.
For all animals only the right eye was examined and the average obtained from three consecutive retinal scanning for each eye was considered for each layer. The OCT images were acquired through bidimensional scanning (B-scan) combined to noise reduction software with ART (automatic real time) and with a visual field of 30 degrees focalized on the head of the optic nerve. After OCT examination the animals were sacrificed by cervical dislocation and the eyes immediately enucleated.

SMILES	bioavailability [1]	reduction in the width of wave b at ERG [2]	PEV P100 IT [3]	apoptosis in GCL retinal layer (TUNEL) [4]	GC/IPL layer thickness [5]	INL layer thickness [5]	RNFL layer thickness [5]	alteration in the thickness of retinal layers [5]
C[N+](C)(C)CCOP(=O)([O-])OP(=O)(O)OC[C@H]1O[C@@H](n2ccc(N)nc2=O)C(O)C1O (stereo partly shown) [Citicoline, citidin-5′-difosfocholine]	~100%	attenuated with respect to Placebo	119.1 (±7.22) ms	lower apoptosis rate with respect to the diabetic mice treated with the vehicle	59.3 ± 4.8 μm	20.9 ± 2.5 μm	22.3 ± 1.3 μm	less reduction in the thickness of the layers
NC(=O)c1cccnc1 [Nicotinamide]	~100%	attenuated with respect to Placebo	119.5 (±7.00) ms	lower apoptosis levels than the diabetic mice treated with the vehicle but with not statistically significant levels	58.8 ± 5.2 μm	21.1 ± 2.1 μm	21.8 ± 2.4 μm	less reduction in the thickness of the layers
